Here are results for 16 molecules from US9296734B2 (AMGEN INC., priority 2013, dated 2016).

Read-outs that look alike come from different tables or passages of the source.

In one experiment the target is Cathepsin D (Cat D) (Homo sapiens (Human), UniProt P07339). The experiment can be described thus: In vitro enzymatic Cathepsin D (Cat D) FRET assay. The class given is biochemical. To be noted: read-out: CatD IC50. The gist of the method:
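CHO-expressed recombinant Cat D cleaves a fluorophore/quencher FRET peptide (20 nM) in 0.05 M citrate pH 3.5, 5 mM CHAPS, 10% DMSO final, over 1 h. Tris addition neutralizes pH to stop the reaction; fluorescence read at excitation 500 nm, emission 580 nm.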

Experiment [1] relates to Abeta 40 in CSF and brain. The experiment can be described thus: In vivo inhibition of beta-secretase: Abeta 40 reduction in CSF and brain of the rat. As to conditions: 10 mpk (unless otherwise noted), after 4 hrs. An excerpt:
In Vivo Inhibition of Beta-Secretase
Several animal models, including mouse, rat, dog, and monkey, may be used to screen for inhibition of beta-secretase activity in vivo following administration of a test compound sample. Animals used in this invention can be wild type, transgenic, or gene knockout animals. […] A separate group of animals receive 2% hydroxypropyl methylcellulose, 1% Tween80 alone, containing no test compound, and serve as a vehicle-control group. At the end of the test period, animals are sacrificed and brain tissues, plasma or cerebrospinal fluid are collected. […] Homogenates are centrifuged at 355,000 g, 4° C. for 30 minutes. CSF or brain supernatants are then analyzed for the presence of A-beta peptide by specific sandwich ELISA assays based on ECL (Electrochemiluminescence) technology. For example, rat Abeta40 is measured using biotinylated-4G8 (Signet) as a capture antibody and Fab40 (an in-house antibody specific to the C-terminal of Abeta40) as a detection antibody.
Actual vehicles used: Oral: 2% HPMC, 1% Tween80, pH 2.2

For experiment [2], the system named is Aβ40 in conditioned medium of cells stably expressing Amyloid Precursor Protein (APP). Nature of the experiment: In vitro BACE cell-based assay (Aβ40 sandwich ELISA). As to conditions: Homo sapiens, read-out: HEK cell assay IC50. The gist of the method:
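Secreted Aβ40 was quantified by sandwich ELISA (pAb40 capture, biotinylated 6E10 detection, Europium time-resolved fluorescence). IC50 derived from percent inhibition versus concentration.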
In general terms: In an ELISA, binding on a coated surface is turned into a signal by an enzyme label.

For experiment [3], the target named is Beta Secretase enzyme (BACE) (Homo sapiens (Human), UniProt P56817). The experiment can be described thus: In vitro enzymatic BACE FRET assay. The class given is biochemical. As to conditions: read-out: BACE 1 FRET assay IC50. The gist of the method: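 Reactions ran in 0.05 M acetate pH 4.2 with 10% DMSO final and 100 uM genapol. They were started with 50 nM peptide FRET substrate (fluorophore and quencher flanking the BACE cleavage site) and incubated one hour. Tris addition raised the pH to neutral to stop the reaction before fluorescence reading.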

Setting [4] is: Abeta 40, rat CSF, read-out: % reduction of rat CSF levels at 10 pmk.
Where [5] appears, read: Abeta 40, rat brain, read-out: % reduction of rat brain levels at 10 mpk.
[6] abbreviates: HEK293, average IC50, HEK cells.
Setting [7] is: average IC50, cathepsin D enzyme assay.
Where [8] appears, read: HEK293, average IC50, HEK cell assay.
[9] abbreviates: average IC50, BACE enzyme assay.

As a reminder, the IC50 is the concentration at which inhibition is half-maximal.

Chain of Beta Secretase enzyme (BACE) (P56817 46-501): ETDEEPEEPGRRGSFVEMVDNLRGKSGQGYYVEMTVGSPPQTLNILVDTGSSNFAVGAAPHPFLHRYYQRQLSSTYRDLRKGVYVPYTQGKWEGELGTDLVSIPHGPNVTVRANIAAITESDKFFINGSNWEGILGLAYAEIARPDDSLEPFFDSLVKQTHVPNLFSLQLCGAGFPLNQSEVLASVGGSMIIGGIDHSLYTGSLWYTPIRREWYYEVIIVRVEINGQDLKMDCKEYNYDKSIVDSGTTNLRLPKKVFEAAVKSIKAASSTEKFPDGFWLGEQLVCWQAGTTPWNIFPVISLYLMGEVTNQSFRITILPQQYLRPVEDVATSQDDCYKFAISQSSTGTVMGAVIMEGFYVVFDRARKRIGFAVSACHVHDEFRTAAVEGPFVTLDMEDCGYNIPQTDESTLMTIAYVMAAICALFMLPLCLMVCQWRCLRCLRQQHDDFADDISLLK
Chain of Cathepsin D (Cat D) (P07339 65-412, species assumed): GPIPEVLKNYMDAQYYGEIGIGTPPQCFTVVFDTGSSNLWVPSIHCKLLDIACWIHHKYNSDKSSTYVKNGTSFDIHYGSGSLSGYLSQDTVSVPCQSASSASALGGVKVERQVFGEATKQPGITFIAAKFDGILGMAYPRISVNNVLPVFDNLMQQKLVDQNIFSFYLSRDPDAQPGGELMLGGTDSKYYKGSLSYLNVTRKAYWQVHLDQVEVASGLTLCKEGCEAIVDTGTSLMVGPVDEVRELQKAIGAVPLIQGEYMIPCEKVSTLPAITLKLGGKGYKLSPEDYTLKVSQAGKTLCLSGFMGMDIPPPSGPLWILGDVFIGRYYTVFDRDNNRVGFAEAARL

As to `COc1cnc(C(=O)Nc2ccc(F)c([C@]3(CF)C[C@@H](C(F)(F)F)OC(N)=N3)c2)cn1` [Example 2, N-(3-((4S,6S)-2-amino-4-(fluoromethyl)-6-(trifluoromethyl)-5,6-dihydro-4H-1,3-oxazin-4-yl)-4-fluorophenyl)-5-methoxypyrazine-2-carboxamide], the IC50 on Cathepsin D (Cat D) (average IC50) was > 400 µM. Moreover, the values for the inhibition in vivo at 10 mg/kg in experiment [1] (setting [4]) and in experiment [1] (setting [5]) were 70% and 61%, respectively.

Turning to `NC1=N[C@](CF)(c2cc(NC(=O)c3ccc(Cl)cn3)ccc2F)C[C@@H](C(F)(F)F)O1` [Example 3, N-(3-((4S,6S)-2-amino-4-(fluoromethyl)-6-(trifluoromethyl)-5,6-dihydro-4H-1,3-oxazin-4-yl)-4-fluorophenyl)-5-chloropicolinamide], the IC50 at Cathepsin D (Cat D) (average IC50) was > 400 µM; in experiment [2] (setting [6]) it was 0.032 µM; in experiment [3] (average IC50), 0.018 µM. In addition, the inhibition in vivo at 10 mg/kg was determined as 72% in experiment [1] (setting [4]) and 58% in experiment [1] (setting [5]).

As for `NC1=N[C@](CF)(c2cc(Nc3cc(Cl)ccn3)ccc2F)C[C@@H](C(F)(F)F)O1` [Example 16, (4S,6S)-4-(5-((4-chloropyridin-2-yl)amino)-2-fluorophenyl)-4-(fluoromethyl)-6-(trifluoromethyl)-5,6-dihydro-4H-1,3-oxazin-2-amine], the IC50 at Cathepsin D (Cat D) (setting [7]) is 1630 µM. Further, the inhibition in vivo at 10 mg/kg stood at 83% in experiment [1] (setting [4]) and 87% in experiment [1] (setting [5]).

With `N#Cc1cnc(C(=O)Nc2ccc(F)c([C@]3(CF)C[C@@H](C(F)(F)F)OC(N)=N3)c2)c(Cl)c1` [Example 32, N-(3-((4S,6S)-2-amino-4-(fluoromethyl)-6-(trifluoromethyl)-5,6-dihydro-4H-1,3-oxazin-4-yl)-4-fluorophenyl)-3-chloro-5-cyano-2-pyridinecarboxamide], the half-maximal inhibitory concentration (IC50) at Cathepsin D (Cat D) (average IC50) is > 400 µM; in experiment [2] (setting [6]), 0.0544 µM; in experiment [3] (average IC50) it was 0.0285 µM. The inhibition in vivo at 10 mg/kg is 21% in experiment [1] (setting [4]) and -3% in experiment [1] (setting [5]).

Consider `COc1cnc(C(=O)Nc2ccc(F)c([C@]3(CF)C[C@@H](C(F)(F)F)OC(N)=N3)c2)c(Cl)c1` [Example 50, N-(3-((4S,6S)-2-amino-4-(fluoromethyl)-6-(trifluoromethyl)-5,6-dihydro-4H-1,3-oxazin-4-yl)-4-fluorophenyl)-3-chloro-5-methoxypicolinamide], for which the IC50 on Cathepsin D (Cat D) (average IC50) is > 400 µM; in experiment [2] (setting [6]) it was 0.0265 µM; in experiment [3] (average IC50), 0.0238 µM. The inhibition in vivo at 10 mg/kg is 50% in experiment [1] (setting [4]) and 22% in experiment [1] (setting [5]).

Consider `Cc1cc(C#N)cnc1C(=O)Nc1ccc(F)c([C@]2(CF)C[C@@H](C(F)(F)F)OC(N)=N2)c1` [Example 51, N-(3-((4S,6S)-2-amino-4-(fluoromethyl)-6-(trifluoromethyl)-5,6-dihydro-4H-1,3-oxazin-4-yl)-4-fluorophenyl)-5-cyano-3-methylpicolinamide], for which the inhibition in vivo at 10 mg/kg in experiment [1] (setting [4]) was determined as 68%; in experiment [1] (setting [5]), 59%.

Turning to `NC1=N[C@](CF)(c2cc(NC(=O)c3ccc(Br)cn3)ccc2F)C[C@@H](C(F)(F)F)O1` [Example 52, N-(3-((4S,6S)-2-amino-4-(fluoromethyl)-6-(trifluoromethyl)-5,6-dihydro-4H-1,3-oxazin-4-yl)-4-fluorophenyl)-5-bromopicolinamide], at Cathepsin D (Cat D) (average IC50), the IC50 was > 400 µM. Moreover, the values for the inhibition in vivo at 10 mg/kg in experiment [1] (setting [4]) and in experiment [1] (setting [5]) were 61% and 54%, respectively.

Turning to `C[C@@]1(c2cc(NC(=O)c3ccc(Cl)cn3)cnc2F)C[C@@H](C(F)(F)F)OC(N)=N1` [Example 60, N-(5-((4S,6S)-2-amino-4-methyl-6-(trifluoromethyl)-5,6-dihydro-4H-1,3-oxazin-4-yl)-6-fluoropyridin-3-yl)-5-chloropicolinamide], the IC50 at Cathepsin D (Cat D) (average IC50) is > 400 µM; in experiment [2] (setting [6]), 0.0135 µM; in experiment [3] (average IC50), 0.0528 µM. Besides, the inhibition in vivo at 10 mg/kg in experiment [1] (setting [4]) amounted to 79%; in experiment [1] (setting [5]) it was 72%.

As to `C[C@@]1(c2nc(NC(=O)c3ccc(C#N)cn3)ccc2F)C[C@@H](C(F)(F)F)OC(N)=N1` [Example 79, N-(6-((4S,6S)-2-amino-4-methyl-6-(trifluoromethyl)-5,6-dihydro-4H-1,3-oxazin-4-yl)-5-fluoropyridin-2-yl)-5-cyanopicolinamide], the IC50 at Cathepsin D (Cat D) (average IC50) was > 400 µM; in experiment [2] (setting [6]), 0.0115 µM; in experiment [3] (average IC50) it was 0.0304 µM. In addition, the inhibition in vivo at 10 mg/kg in experiment [1] (setting [4]) turned out to be 83%; in experiment [1] (setting [5]) it was 79%.

For the molecule `NC1=N[C@](CF)(c2nc(NC(=O)c3nn(C(F)F)cc3Cl)ccc2F)C[C@@H](C(F)(F)F)O1` [Example 135, N-(6-((4S,6S)-2-amino-4-(fluoromethyl)-6-(trifluoromethyl)-5,6-dihydro-4H-1,3-oxazin-4-yl)-5-fluoropyridin-2-yl)-4-chloro-1-(difluoromethyl)-1H-pyrazole-3-carboxamide], the IC50 on Cathepsin D (Cat D) (setting [7]) was 1170 µM; in experiment [2] (setting [8]) it was 0.031 µM; in experiment [3] (setting [9]), 0.052 µM. In addition, the inhibition in vivo at 10 mg/kg was determined as 64% in experiment [1] (setting [4]) and 55% in experiment [1] (setting [5]).

On to `C#CCOc1cnc(C(=O)Nc2cc(F)c(F)c([C@]3(CF)C[C@@H](C(F)(F)F)OC(N)=N3)c2)cn1` [Example 154, N-(3-((4S,6S)-2-amino-4-(fluoromethyl)-6-(trifluoromethyl)-5,6-dihydro-4H-1,3-oxazin-4-yl)-4,5-difluorophenyl)-5-(prop-2-yn-1-yloxy)pyrazine-2-carboxamide], for which the half-inhibitory concentration (IC50) is > 400 µM on Cathepsin D (Cat D) (setting [7]), 0.0096 µM in experiment [2] (setting [8]) and 0.0014 µM in experiment [3] (setting [9]). The inhibition in vivo at 10 mg/kg in experiment [1] (setting [4]) came to 67%; in experiment [1] (setting [5]), 71%.

For `CC#CCOc1cnc(C(=O)Nc2cc(F)c(F)c([C@]3(CF)C[C@@H](C(F)(F)F)OC(N)=N3)c2)cn1` [Example 155, N-(3-((4S,6S)-2-amino-4-(fluoromethyl)-6-(trifluoromethyl)-5,6-dihydro-4H-1,3-oxazin-4-yl)-4,5-difluorophenyl)-5-(but-2-yn-1-yloxy)pyrazine-2-carboxamide], the IC50 at Cathepsin D (Cat D) (setting [7]) was > 400 µM; in experiment [2] (setting [8]) it was 0.00367 µM; in experiment [3] (setting [9]), 0.00087 µM. Besides, the inhibition in vivo at 10 mg/kg came out at 26% in experiment [1] (setting [4]) and 11% in experiment [1] (setting [5]).

Regarding `C[C@@]1(c2cc(NC(=O)c3ccc(Cl)cn3)cc(F)c2F)C[C@@H](C(F)(F)F)OC(N)=N1` [Example 164, N-(3-((4S,6S)-2-amino-4-methyl-6-(trifluoromethyl)-5,6-dihydro-4H-1,3-oxazin-4-yl)-4,5-difluorophenyl)-5-chloropicolinamide], the IC50 at Cathepsin D (Cat D) (setting [7]) is 1350 µM; in experiment [2] (setting [8]), 0.0052 µM; in experiment [3] (setting [9]) it was 0.024 µM. Also, the values for the inhibition in vivo at 10 mg/kg in experiment [1] (setting [4]) and in experiment [1] (setting [5]) were 77% and 75%, respectively.

As for `COc1cnc(C(=O)Nc2cc(F)c(F)c([C@]3(C)C[C@@H](C(F)(F)F)OC(N)=N3)c2)cn1` [Example 165, N-(3-((4S,6S)-2-amino-4-methyl-6-(trifluoromethyl)-5,6-dihydro-4H-1,3-oxazin-4-yl)-4,5-difluorophenyl)-5-methoxypyrazine-2-carboxamide], the values for the IC50 (at Cathepsin D (Cat D) (setting [7]); in experiment [2] (setting [8]); in experiment [3] (setting [9])) were 5350 µM, 0.0098 µM and 0.078 µM, respectively. For the same molecule, the inhibition in vivo at 10 mg/kg in experiment [1] (setting [4]) amounted to 75%; in experiment [1] (setting [5]) it was 76%.

Regarding `C[C@@]1(c2cc(NC(=O)c3ncc(C#N)cc3Cl)cc(F)c2F)C[C@@H](C(F)(F)F)OC(N)=N1` [Example 167, N-(3-((4S,6S)-2-amino-4-methyl-6-(trifluoromethyl)-5,6-dihydro-4H-1,3-oxazin-4-yl)-4,5-difluorophenyl)-3-chloro-5-cyanopicolinamide], at Cathepsin D (Cat D) (setting [7]), the IC50 came to 113 µM. For the same molecule, the inhibition in vivo at 10 mg/kg in experiment [1] (setting [4]) is 42%; in experiment [1] (setting [5]) it was 15%.

Take `COc1ccc(C(=O)Nc2cc(F)c(F)c([C@]3(C)C[C@@H](C(F)(F)F)OC(N)=N3)c2)nc1` [Example 201, N-(3-((4S,6S)-2-amino-4-methyl-6-(trifluoromethyl)-5,6-dihydro-4H-1,3-oxazin-4-yl)-4,5-difluorophenyl)-5-methoxypicolinamide]: the concentration for half-maximal inhibition (IC50) on Cathepsin D (Cat D) (average) stood at 762 µM. The inhibition in vivo at 10 mg/kg is 75% in experiment [1] (setting [4]) and 76% in experiment [1] (setting [5]).
